Assay results: patent US6262064A, “Octahydrobenzo[f]quinoline-based receptor agonists and antagonists” (priority 1999, dated 2001)
“Also recorded” adds a separate entry of the source. Where two headings read alike, the source gives them in different places.

Tests used:
[1] = biological target: T1, D1 dopamine receptor (Rattus norvegicus, UniProt P18901); experiment: Dopamine D1 binding assay ([3H]SCH 23390); settings: Table III; rat striatal membranes; read-out: D1 receptor binding affinity Ki
T1 construct: rat striatal membranes; from tissue; host or cells: rat striatum membranes
Experimental: The final radioligand concentration was 0.5 nM.

[2] = biological target: T2, D2 dopamine receptor (Rattus norvegicus, UniProt P61169); experiment: Dopamine D2 binding assay ([3H]Sulpiride); settings: for dopamine receptor binding affinity / selectivity for the D2 over the D1 dopamine receptor: in words
T2 construct: rat striatal membranes; from tissue; host or cells: rat striatum membranes
Experimental: The final ligand concentration was 0.5 nM.

[3] = biological target: alpha2-adrenergic receptor; experiment: Alpha2-adrenergic (non-selective) binding assay ([3H]RX 781094); parameters: species or system rat; settings: for Ki: Table III, rat cortical membranes, read-out: α2 receptor binding affinity Ki; for α2 receptor binding affinity: in words
[4] = tested on: non-habituated male Swiss-Webster mice; experiment: Locomotor dose-effect test; type: in vivo; settings: for decrease in locomotor activity, overall assessment / suppression of locomotor activity: in words; for ED50: Mus musculus, read-out: ED50 (dose which produced 50% maximal depressant activity), IP, horizontal locomotor activity
Experimental: Compounds of this invention were tested to evaluate any depressant effect upon locomotor activity on non-habituated and cocaine-influenced mice. Locomotor activity was measured in photocell cages. A panel of infrared beams was located in the horizontal direction along all 4 sides of each activity cage. Horizontal photocell beam interruptions were recorded by a computer in 10 minute intervals.
Non-habituated male Swiss-Webster served as subjects in this experiment. The mice were injected via the intraperitoneal (IP) route with a methycellulose vehicle or a test compound, comprising trans-9 or cis-9, and placed singly in cages for 20 minutes. After this 20 minute period, mice were injected with saline IP, placed in individual photocell cages and testing for effects upon locomotor activity was begun. Eight mice were tested at each dose level. Experimental sessions were 60 minutes in duration with horizontal locomotor activity recorded in 10 minute intervals. Within each 10 minute interval, the data from all subjects are averaged.
The results of these tests were provided in FIGS. 1a, 1b, 2a and 2b, as well as in Table XI. […] Data were analyzed by a one-way ANOVA computed across doses using a long10 transformation of the horizontal activity counts. Comparisons between vehicle and each dose of the compounds tested were made by a priori contrasts. Doses of the compounds tested, which produced a statistically significant (p<0.05) decrease in locomotor activity relative to vehicle control, are denoted with an asterisk. […] The horizontal activity counts were regressed against the log10 dose of the test compound.

[5] = tested on: male Sprague-Dawley albino rats; experiment: Stereotypy evaluation for dopaminergic activity; type: in vivo; settings: IP; for induction of stereotypy, dopamine agonism: in words
Experimental: Young, adult, male Sprague-Dawley (Charles River) albino rats (200-250 g) served as subjects in this experiment. The rats were injected IP with each dose of (±)-trans-9 or (±)-cis-9. Six rats were tested at each dose. Experimental sessions were 60 minutes in duration. The tests were performed and rated in accordance with the method described in Campbell et al., Psychopharmacology, 88:158 (1986). Each rat was rated with a score of 0 to 3, where 0 represents no sterotypy.

[6] = biological target: T3, D3 (human) receptor (Homo sapiens, UniProt P35462); experiment: D2:D3:D4 competition binding assay, D3 ([3H]-spiperone); settings: in words, Example 26
T3 construct: expressed in transfected cells
Experimental: (§1) To determine the D2, D3 or D4 receptor selectivity, competition binding assays were performed using membranes from fibroblast cell lines transfected with D2444 (rat), D3 (human) or D4 (rat) receptors. All cell lines were maintained in Dulbecco's modified Eagle's media (DMEM) supplemented with 10 % fetal bovine serum at 37° C. with 5% CO2. Transfected cells were maintained in DMEM containing 300 μg/mL of the antibiotic G418 (Gibco).
(§2) Nuclei were removed by centrifugation for five minutes at 600 g at 4° C., membranes were pelleted for 25 minutes at 50,000 g. Membrane protein was resuspended in homogenization buffer (0.32M sucrose, 0.0025M Tris, pH 6.9 at 20° C.) and incubated at 37° C. for 15 minutes. Membrane protein was pelleted, resuspended in water and stored at -70° C.
(§3) The compositions were tested in varying concentrations between 1 nM and 100 μM. Non-specific binding was determined using 1 μM eticlopride.
(§4) After addition of all components, the samples were incubated for 15 minutes at 37° C., terminated with 50 mM Tris-HCl (pH 7.4 at 4° C.) and collected on glass-fiber filters on a Brandel cell harvester. […] Each composition was evaluated in duplicate experiments.

[7] = biological target: T4, D2 receptor (Sus scrofa, UniProt F1SM69); experiment: D2:D4 comparative binding assay, D2 (pig anterior pituitary)
T4 construct: pig anterior pituitary tissue; from tissue; host or cells: pig anterior pituitary
Experimental: (§5) To evaluate D2 versus D4 receptor selectivity, comparative binding assays were performed to compare the binding affinities of compositions of this invention for cloned D2 and D4 receptors.
(§6) The D2 assay was prepared from pig anterior pituitary tissue as described in Seeman et al., Molecular Pharmacology, 28:391 (1985). The D4 assay contained membranes prepared from COS-7 cells transfected with a 3.9 kb cDNA-gene fusion construct as described in H. H. M. Vantol, Nature, 350:610 (1991).
(§7) Binding assays were done using the methods described in by Seeman and Vantol. [^3 H]-spiperone (New England Nuclear, Boston, Mass.). The compositions were tested varying concentrations.
(§8) After addition of all components, the samples were incubated for 15 minutes at 37° C., terminated with 50 mM Tris-HCl (pH 7.4 at 20° C.) and collected on glass-fiber filters on a Brandel cell harvester. Radioactivity retained on the filters was counted on a Beckman LS 1701 scintillation counter and data were analyzed by non-linear least squares regression methods.

[8] = biological target: T5, D4 receptor (Homo sapiens, UniProt P21917, DEL265-296); experiment: D2:D4 comparative binding assay, D4 (COS-7 cells)
T5 construct: expressed in transfected cells; host or cells: COS-7 cells
Experimental: as §5, §6, §7, §8

[9] = biological target: T6, D2 receptor (Rattus norvegicus, UniProt P61169); experiment: D2 receptor agonist evaluation (membrane binding with and without Gpp(NH)p); settings: for Ratio of +:- Gpp(NH)p / Ki: Table XV; for D2 agonist/antagonist assessment / effect of GTP on D2 receptor binding: in words
T6 construct: expressed in transfected cells
Experimental: as §1
To determine whether or not compounds of this invention were D2 receptor agonists, a membrane binding assay, utilizing the D2 cell line described in Example 26, was performed in the presence and absence of the non-hydrolyzable guanine nucleotide (GTP analogue) Gpp(NH)p.

[10] = tested on: alpha1-adrenergic receptor; settings: for Ki: read-out: α1 receptor binding affinity Ki, Table III, rat forebrain membranes
Experimental: In these assays, the binding reaction was initiated by the addition of varying concentrations of the potential binding composition and a radioligand to an appropriate tissue. The assay was then incubated to allow binding. Binding was then terminated by dilution of the assay with a cold buffer, followed by rapid vacuum filtration onto Whatman GI/C filters that were presoaked in 0.1% polyethylene imine for at least 3 hours. Radioactivity trapped onto the filters was determined and compared to control values in order to ascertain any interactions of test compounds with the binding sites. Binding affinity analyses were performed by Novascreen, Division of the Adheron Corporation, Hanover, Md.
Incubation was conducted in 50 mM TRIS-HCl (pH 7.7) at 25° C. for 60 minutes. […] The final ligand concentration was 0.5 nm.

[11] = tested on: 5HT1 serotonin receptor; experiment: Serotonin (5HT1) binding assay
Experimental: In these assays, the binding reaction was initiated by the addition of varying concentrations of the potential binding composition and a radioligand to an appropriate tissue. The assay was then incubated to allow binding. Binding was then terminated by dilution of the assay with a cold buffer, followed by rapid vacuum filtration onto Whatman GI/C filters that were presoaked in 0.1% polyethylene imine for at least 3 hours. Radioactivity trapped onto the filters was determined and compared to control values in order to ascertain any interactions of test compounds with the binding sites.
Incubation was conducted in 50 mM TRIS-HCl (pH 7.4) at 45 minutes for 37° C. The radioligand used was [^3 H]Hydroxytryptamine binoxalate (15-30 Ci/mmol). The final ligand concentration was 3.0 nM.

[12] = biological target: T7, D4 (rat) receptor (Rattus norvegicus, UniProt P30729); experiment: D2:D3:D4 competition binding assay, D4 ([3H]-spiperone); settings: in words, Example 26
T7 construct: expressed in transfected cells
T7 sequence (P30729 1-387): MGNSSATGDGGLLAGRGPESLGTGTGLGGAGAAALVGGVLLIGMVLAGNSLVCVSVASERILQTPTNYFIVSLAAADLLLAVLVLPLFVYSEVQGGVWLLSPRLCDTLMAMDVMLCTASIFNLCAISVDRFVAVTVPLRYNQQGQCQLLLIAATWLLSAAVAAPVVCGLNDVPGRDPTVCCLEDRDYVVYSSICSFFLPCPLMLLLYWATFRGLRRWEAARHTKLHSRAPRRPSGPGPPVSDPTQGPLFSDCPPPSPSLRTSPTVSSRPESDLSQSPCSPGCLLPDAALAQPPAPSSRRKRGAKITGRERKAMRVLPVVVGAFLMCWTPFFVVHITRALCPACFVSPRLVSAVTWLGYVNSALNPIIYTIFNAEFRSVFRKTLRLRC
Experimental: as §1, §2, §3, §4

[13] = with Gpp(NH)p, read-out: D2 receptor binding Ki with Gpp(NH)p
[14] = without Gpp(NH)p, read-out: D2 receptor binding Ki without Gpp(NH)p

T6 sequence (P61169 whole entry): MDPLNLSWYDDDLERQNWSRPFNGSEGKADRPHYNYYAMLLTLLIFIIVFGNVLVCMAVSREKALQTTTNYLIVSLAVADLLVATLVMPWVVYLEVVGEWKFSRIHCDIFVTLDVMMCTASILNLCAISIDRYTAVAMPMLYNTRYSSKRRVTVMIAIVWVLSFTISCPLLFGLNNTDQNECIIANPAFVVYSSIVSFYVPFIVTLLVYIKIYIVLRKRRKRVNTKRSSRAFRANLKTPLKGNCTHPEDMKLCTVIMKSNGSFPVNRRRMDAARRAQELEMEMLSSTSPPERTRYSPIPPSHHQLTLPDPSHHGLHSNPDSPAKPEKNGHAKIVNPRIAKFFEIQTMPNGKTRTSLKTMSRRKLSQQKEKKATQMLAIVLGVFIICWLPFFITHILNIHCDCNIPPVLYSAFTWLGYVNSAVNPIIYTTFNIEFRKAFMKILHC
T2 sequence (P61169 whole entry): as above
T5 sequence (P21917 other isoform, or with tags, fused parts or gaps DEL265-296): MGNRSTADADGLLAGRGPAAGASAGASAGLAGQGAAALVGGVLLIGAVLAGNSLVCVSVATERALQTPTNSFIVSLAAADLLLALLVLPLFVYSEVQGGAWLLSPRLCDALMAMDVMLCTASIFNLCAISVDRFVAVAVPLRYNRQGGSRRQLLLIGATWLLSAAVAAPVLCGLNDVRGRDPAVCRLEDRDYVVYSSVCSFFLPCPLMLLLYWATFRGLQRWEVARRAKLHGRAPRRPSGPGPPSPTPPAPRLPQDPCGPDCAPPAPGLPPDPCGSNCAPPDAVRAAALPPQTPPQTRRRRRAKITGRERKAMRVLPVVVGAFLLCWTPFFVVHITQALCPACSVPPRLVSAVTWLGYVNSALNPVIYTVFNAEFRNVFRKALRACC
T4 sequence (F1SM69 1-443): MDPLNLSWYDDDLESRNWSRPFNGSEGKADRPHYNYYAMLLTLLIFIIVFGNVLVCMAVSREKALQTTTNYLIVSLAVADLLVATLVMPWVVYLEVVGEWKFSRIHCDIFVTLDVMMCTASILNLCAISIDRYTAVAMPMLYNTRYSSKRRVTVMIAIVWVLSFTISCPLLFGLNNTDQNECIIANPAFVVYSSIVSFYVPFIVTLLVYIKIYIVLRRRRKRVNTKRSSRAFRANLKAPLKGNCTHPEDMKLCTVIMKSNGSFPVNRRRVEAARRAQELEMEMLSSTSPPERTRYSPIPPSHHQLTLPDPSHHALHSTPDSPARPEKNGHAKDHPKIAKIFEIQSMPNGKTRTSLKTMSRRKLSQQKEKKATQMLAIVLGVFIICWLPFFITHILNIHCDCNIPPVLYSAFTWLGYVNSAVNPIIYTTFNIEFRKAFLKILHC
T1 sequence (P18901 whole entry): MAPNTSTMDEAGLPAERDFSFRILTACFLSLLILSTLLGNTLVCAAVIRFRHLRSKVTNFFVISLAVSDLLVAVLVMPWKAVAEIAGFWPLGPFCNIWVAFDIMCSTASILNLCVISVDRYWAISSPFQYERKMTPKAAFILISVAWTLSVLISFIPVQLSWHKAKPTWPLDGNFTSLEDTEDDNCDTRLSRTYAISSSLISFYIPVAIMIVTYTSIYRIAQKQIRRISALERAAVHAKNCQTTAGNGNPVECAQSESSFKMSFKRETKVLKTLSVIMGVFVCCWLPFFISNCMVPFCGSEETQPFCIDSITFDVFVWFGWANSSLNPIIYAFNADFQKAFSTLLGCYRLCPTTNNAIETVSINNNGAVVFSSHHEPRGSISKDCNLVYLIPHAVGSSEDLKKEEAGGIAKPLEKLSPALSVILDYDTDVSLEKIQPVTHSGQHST
T3 sequence (P35462 whole entry): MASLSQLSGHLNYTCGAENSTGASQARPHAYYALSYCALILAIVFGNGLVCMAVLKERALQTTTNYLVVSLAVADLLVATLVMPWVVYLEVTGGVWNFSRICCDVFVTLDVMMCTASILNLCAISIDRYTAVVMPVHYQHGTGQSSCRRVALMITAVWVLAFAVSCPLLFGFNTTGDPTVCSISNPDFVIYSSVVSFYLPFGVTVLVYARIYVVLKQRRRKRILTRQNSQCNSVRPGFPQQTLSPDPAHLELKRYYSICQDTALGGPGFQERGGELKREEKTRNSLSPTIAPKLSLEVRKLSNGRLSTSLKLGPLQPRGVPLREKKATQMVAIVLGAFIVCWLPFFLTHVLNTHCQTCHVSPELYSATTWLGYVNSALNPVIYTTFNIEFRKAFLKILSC

Compound | Ki [2] [µM] | dopamine receptor binding affinity [2] | selectivity for the D2 over the D1 dopamine receptor [2] | Ki [3] [µM] | α2 receptor binding affinity [3] | decrease in locomotor activity, overall assessment ([4]; IP) | suppression of locomotor activity ([4]; IP) | ED50 [4] [mg/kg] | stereotypy score ([5]; 0.0001 mg/kg) | stereotypy score ([5]; 0.001 mg/kg) | stereotypy score ([5]; 0.003 mg/kg) | stereotypy score ([5]; 0.01 mg/kg) | stereotypy score ([5]; 0.03 mg/kg) | stereotypy score ([5]; 0.1 mg/kg) | stereotypy score ([5]; 0.3 mg/kg) | stereotypy score ([5]; 1.0 mg/kg) | stereotypy score ([5]; 3.0 mg/kg) | stereotypy score ([5]; 10.0 mg/kg) | induction of stereotypy, dopamine agonism [5] | Ki [7] [µM] | further results
Oc1ccc2c(c1O)CC[C@@H]1[C@@H]2CCCN1CCc1ccccc1 (relative stereo) [trans-9, trans-7,8-dihydroxy-4-phenethyl-1,2,3,4,4a,-5,6,10b-octahydrobenzo[f]quinoline] | 0.0022 | good dopamine receptor binding affinities | highly selective for the D2 dopamine receptor over the D1 dopamine receptor | 0.022 | high binding affinities for the α2 receptor | strong agonist in inducing a decrease in locomotor activity in mice | marked suppression of locomotor activity when initially tested at 10 mg/kg; also recorded: Marked suppression was still evident at 0.1 mg/kg | 0.038 | 6.5 ± 0.4 | 10.0 ± 0.9 | 8.2 ± 0.8 | 7.2 ± 0.6 | 6.5 ± 0.5 | 6.0 ± 0.7 | 1.7 ± 0.5 | 0.3 ± 0.2 | 0.2 ± 0.2 | 0.0 | appears to be a strong agonist as it induced stereotypy in rats | 0.0069 | Ki [1]: 3.6 µM; selectivity for the D3 receptor [6]: highly selective for the D3 receptor over the D2 or D4 receptors; Ki [8]: 0.0024 µM; Ratio of +:- Gpp(NH)p [9]: 8.82; Ki [9, 13]: 0.924 ± 1.84 µM; Ki [9, 14]: 0.105 ± 0.029 µM; D2 agonist/antagonist assessment [9]: appear to be agonists; effect of GTP on D2 receptor binding [9]: D2 receptor binding was enhanced by the addition of GTP; α1 receptor binding affinity ([10]; in words): high binding affinities for the α1 receptor; Ki [10]: 0.08 µM; 5HT1 serotonin receptor binding affinity ([11]; in words): high binding affinity for the 5HT1 serotonin receptor; Ki ([11]; read-out: 5-HT1 receptor binding affinity Ki, Table III, rat cortical membranes): 0.15 µM
Oc1ccc2c(c1O)CC[C@@H]1[C@H]2CCCN1CCc1ccccc1 (relative stereo) [cis-9] | 0.022 | good dopamine receptor binding affinities | highly selective for the D2 dopamine receptor over the D1 dopamine receptor | 0.027 | high binding affinities for the α2 receptor | much weaker than expected when compared to its dopamine D2 receptor affinity | dose-related suppression of locomotor activity of 10 mg/kg | 2.1 | 1.0 ± 0.4 | 0.7 ± 0.3 | 0.5 ± 0.2 | 0.0 | 0.0 | 0.0 | 0.0 | 0.0 | 0.0 | 0.0 | did not induce stereotypy and therefore is not a dopamine agonist | 0.122 | deaths ([4]; IP, 10 mg/kg): Two of eight mice died; selectivity for the D4 receptor [12]: highly selective for the D4 receptor over the D2 or D3 receptors; Ki [8]: 0.0089 µM; selectivity for the D4 receptor ([8]; in words, Example 27): selective for the D4 receptor over the D2 or D3 receptors; Ratio of +:- Gpp(NH)p [9]: 1.84; Ki [9, 13]: 0.872 ± 0.61 µM; Ki [9, 14]: 0.473 ± 0.313 µM; D2 agonist/antagonist assessment [9]: appear to be an antagonist; effect of GTP on D2 receptor binding [9]: the addition of GTP did not significantly affect receptor binding affinity; Ki [10]: 0.19 µM
